Consider one compound from patent US20250281574A1 (priority 2022, published 2025).

In data set [1] the test system is C57BL/6 mice challenged with a lethal dose of lipopolysaccharide (LPS). The experiment in a line: LPS-induced lung injury mouse model of ARDS, survival. Type of data set: in vivo. As to the method: C57BL/6 mice were pretreated with either 5.76 mg/kg aCT1 peptide, 5.76 mg/kg control peptide, or PBS vehicle control prior to inoculation with a lethal dose (35 mg/kg) of LPS. For FIG. 2A, n=20-22/group and p<0.0001 by Log-rank Mantel-Cox test; for FIG. 2B, n=5-8/group and p<0.001 by Log-rank Mantel-Cox test. Doses are reported as presented dose, with estimated animal body weight of 25 grams.
Studies were undertaken to assess whether delivery of aCT1 to the respiratory tract in animal models of ARDS would reduce epithelial and endothelial breakdown, thereby preserving the air-liquid barrier while preventing fluid accumulation and reducing immune cell infiltration, resulting in the amelioration of ARDS pathology and preserving lung function to improve survival. Using a well characterized mouse model of ARDS, we investigated whether aCT1 applied directly to the lungs could inhibit severe endotoxin induced lung injury. C57BL/6 mice were intranasally challenged with a lethal dose of lipopolysaccharide (LPS) and were treated with aCT1 immediately prior to LPS administration (FIG. 2A), or six (6) hours post LPS exposure (FIG. 2B).

For data set [2], the system named is cecal ligation and puncture (CLP) mouse model of sepsis. The experiment in a line: Cecal ligation and puncture (CLP) mouse model of sepsis. It is filed as in vivo. The text has this:
3A. For FIG. 3A, n=7-9/group and p=0.052 by Log-rank Mantel-Cox test; for FIG. 3B, n=8/group and p<0.05 by Log-rank Mantel-Cox test. Doses are reported as administered dose, with estimated animal body weight of 25 grams.
Representative images are shown.

The subject of data set [3] is normal human bronchial epithelial (NHBE) cells. The experiment in a line: Trans-epithelial electrical resistance (TER) after H2O2 exposure. It is filed as cell-based. The note with it: NHBE monolayers; aCT1 pre-treatment; 500 mM H2O2; 72 hours. The protocol: (n=3/group; p-values reported at 72 hours compared to H2O2).
(§1) To determine if aCT1 treatment preserves junctional integrity in human lung cells, human bronchial epithelial cells (NHBEs) were grown as confluent monolayers on Transwell inserts and trans-epithelial electrical resistance (TER) recorded. TER readings measure electrical resistance across a cell monolayer and provide a quantitative metric of intercellular junction integrity.

Data set [4] has the same test system. Kind of data set: Trans-epithelial electrical resistance (TER) after LPS exposure. It is filed as cell-based. The note with it: aCT1 pre-treatment, 10 μg LPS, 72 hours. The protocol: Normal human bronchial epithelial (NHBE) cells were exposed to 10 μg LPS. […] (n=3/group; p-values reported at 72 hours compared to LPS).
as §1

Data set [5] in a line: Intravenous (bolus) toxicity in rats. The conditions noted are these: rat, in vivo, intravenous administration, read-out: Maximum Tolerated Dose (clinical signs observed). As to the method: Intravenous administration (bolus) of aCT1 in rats was well tolerated and a 5 mg/kg dosing level was established as the no-observable-adverse-effect level (NOAEL). Clinical signs were only observed at aCT1 administration levels that are well above the therapeutic range of efficacy, following intravenous administration of aCT1 at ≥10 mg/kg (Maximum Tolerated Dose). The results of these studies uniformly support aCT1 tolerability when delivered locally and systemically via various routes.

For data set [6] the following is noted: human. The text has this:
(§2) Clinical trials have been undertaken to assess safety of topical delivery of aCT1.

For another data set, the system named is human subjects.
Text: as §2

For data set [7], the system named is normal human bronchial epithelial cells (NHBEs). The note with it: NHBEs treated with 100 mM alcohol.
The test system of data set [8] is ocular corneal injury models. The conditions noted are these: cited from earlier work.

Entries after “also recorded” stand apart in the source; their conditions may differ. Peptide text beside a SMILES is read from it. * marks the point of attachment. Biotin = O=C1N[C@H]2[C@H](CS[C@H]2CCCCC(=O)*)N1; Ahx = NCCCCCC(=O)O

For orientation: half-life means the time needed for the level to fall by half in the phase considered. Low readings indicate rapid decline, high ones slow decline. `CC[C@H](C)[C@H](NC(=O)[C@H](CCC(=O)O)NC(=O)[C@H](CC(C)C)NC(=O)[C@H](CC(=O)O)NC(=O)[C@H](CC(=O)O)NC(=O)[C@@H]1CCCN1C(=O)[C@H](CCCNC(=N)N)NC(=O)[C@@H]1CCCN1C(=O)[C@H](CCCNC(=N)N)NC(=O)[C@H](CCCCN)NC(=O)[C@H](CCCCN)NC(=O)[C@H](Cc1c[nH]c2ccccc12)NC(=O)[C@@H]1CCCN1C(=O)[C@H](CCCCN)NC(=O)[C@H](CCCNC(=N)N)NC(=O)[C@H](CCCNC(=N)N)NC(=O)[C@H](CC(N)=O)NC(=O)[C@@H]1CCCN1C(=O)[C@H](Cc1ccccc1)NC(=O)[C@H](Cc1c[nH]c2ccccc12)NC(=O)[C@@H](NC(=O)[C@H](CCCCN)NC(=O)[C@@H]1CCCN1C(=O)[C@H](CCC(N)=O)NC(=O)[C@H](CCCNC(=N)N)NC(=O)CCCCCNC(=O)CCCC[C@@H]1SC[C@@H]2NC(=O)N[C@@H]21)[C@@H](C)CC)C(=O)O` [aCT1] ({Biotin-Ahx}-RQPKIWFPNRRKPWKKRPRPDDLEI-OH; N-terminus and C-terminus assumed): the survival result is recorded as “provides significant protection against lipopolysaccharide (LPS)-induced mortality; also recorded: significantly improved survival” in [1] (lethal LPS 35 mg/kg intranasal, 5.76 mg/kg aCT1 intranasal immediately prior to LPS, p<0.0001 Log-rank); “provides significant protection against lipopolysaccharide (LPS)-induced mortality; also recorded: significantly improved survival” in data set [1] (lethal LPS, aCT1 six hours post LPS, p<0.001 Log-rank); “prolonged survival” in [2] (14.34 mg/kg aCT1 intravenously immediately after CLP, p=0.052 Log-rank); “prolonged survival” in [2] (aCT1 intravenously 6 hours post CLP, p<0.05 Log-rank). For the same compound, the “immune cell infiltration and alveolar edema (H&E lung histopathology)” value in data set [2] (14.34 mg/kg aCT1 immediately after CLP, lungs at 12 hours post CLP) is “significantly decreased immune cell infiltration and alveolar edema”. Besides, the “TER / intercellular junction integrity” value in [3] was “stabilized intercellular junctions; also recorded: significantly increased TER readings”. Further, the “TER / barrier integrity” value in [4] was “stabilized barrier integrity; also recorded: significantly improved TER readings”. Further, the MTD in data set [5] is at least 10 mg/kg. Also, the half-life in [6] lay within 15 to 20 min. Further, the “immunogenicity (anti-aCT1 antibodies)” value in the data set with human subjects (any preclinical study or clinical trial) was “not immunogenic”. The systemic exposure result in the data set with human subjects (pharmacokinetic studies in clinical trials, topical) was “no systemic exposure”. In the data set on human subjects (topical delivery, over 482 human subjects), the “drug related adverse events” value is on record as “no drug related adverse events”. In addition, in data set [7], the “electrical resistance (barrier function)” value was “improved electrical resistance”. Besides, the inflammatory signaling molecules entry in data set [8] is “reduced inflammatory signaling molecules such as IL-6, IL-1β, TNFα, Cox-2, MMP-9, and VEGF”.
